According to patent publication US7253171B2 (Laboratorios Almirall, S.A., priority 2001, dated 2007):
Where two headings read alike, the source gives them in different places.

What was measured:
α4β1 integrin = molecular target: T1, α4β1 integrin (Homo sapiens, UniProt P05556+P13612); assay: U-937 cell adhesion to human VCAM-1 (α4β1 binding assay); assay type: cell-based; details: U-937 cells, immobilized human VCAM-1; read-out: IC50 values in the α4β1 assays
T1 construct: endogenous in cells; host or cells: U-937 cells
Protocol: U-937 Cell Adhesion to Human VCAM-1 (α4β1 Binding Assay)
Recombinant human soluble VCAM-1 (R&D Systems Ltd., UK) at 2 μg/ml in PBS was immobilized overnight onto microtiter plates. Unbound VCAM-1 was washed away and VCAM-1 coated plates were blocked with bovine serum albumin (BSA) 2,5% in PBS for 2 h at room temperature. U-937 cells were labelled with 5-carboxyfluorescein diacetate (5-CFDA) in order to detect bound cells to the wells. Test compounds were added to the wells followed by U-937 cells and the adhesion assay was performed for 1 h at 37° C. Following incubation, the wells were emptied and washed. Inhibition of binding was measured by the quantity of fluorescence bound to the plate for each of the various concentrations of test compound, as well as for controls containing no test compound, with a Cytofluor 2300 fluorescence measurement system.

α4β7 integrin = molecular target: T2, α4β7 integrin (Homo sapiens, UniProt P13612+P26010); assay: RPMI 8866 cell adhesion to mouse MAdCAM-1 (α4β7 binding assay); assay type: cell-based; details: RPMI 8866 cells, immobilized mouse MAdCAM-1
T2 construct: endogenous in cells; host or cells: RPMI 8866 cells
T2 sequence (P13612 34-1032): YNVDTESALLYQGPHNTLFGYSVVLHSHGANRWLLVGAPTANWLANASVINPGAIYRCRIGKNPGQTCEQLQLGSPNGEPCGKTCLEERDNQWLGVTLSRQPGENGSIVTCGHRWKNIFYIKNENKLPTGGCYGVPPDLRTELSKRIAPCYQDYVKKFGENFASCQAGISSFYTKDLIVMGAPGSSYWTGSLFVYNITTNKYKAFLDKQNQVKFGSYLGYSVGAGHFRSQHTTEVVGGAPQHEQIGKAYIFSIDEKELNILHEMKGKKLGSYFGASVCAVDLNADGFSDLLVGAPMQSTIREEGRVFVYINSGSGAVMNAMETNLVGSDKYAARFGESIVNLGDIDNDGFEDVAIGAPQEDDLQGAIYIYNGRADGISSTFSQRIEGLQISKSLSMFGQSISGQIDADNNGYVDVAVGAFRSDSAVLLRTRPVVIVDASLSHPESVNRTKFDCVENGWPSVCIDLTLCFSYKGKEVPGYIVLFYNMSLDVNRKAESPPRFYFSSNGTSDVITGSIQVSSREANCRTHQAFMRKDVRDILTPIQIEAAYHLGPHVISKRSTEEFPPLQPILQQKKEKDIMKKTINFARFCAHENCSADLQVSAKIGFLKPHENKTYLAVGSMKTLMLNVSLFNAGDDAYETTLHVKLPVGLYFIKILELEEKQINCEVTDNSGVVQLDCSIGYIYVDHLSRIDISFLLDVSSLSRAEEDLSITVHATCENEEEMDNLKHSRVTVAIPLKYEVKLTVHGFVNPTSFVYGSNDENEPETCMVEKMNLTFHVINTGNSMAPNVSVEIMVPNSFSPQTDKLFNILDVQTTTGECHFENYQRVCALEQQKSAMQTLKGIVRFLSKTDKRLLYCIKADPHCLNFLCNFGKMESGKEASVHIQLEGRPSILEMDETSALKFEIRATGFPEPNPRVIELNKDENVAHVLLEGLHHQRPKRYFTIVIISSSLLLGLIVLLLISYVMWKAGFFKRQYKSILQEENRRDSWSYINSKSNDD
T2 sequence (P26010 20-798): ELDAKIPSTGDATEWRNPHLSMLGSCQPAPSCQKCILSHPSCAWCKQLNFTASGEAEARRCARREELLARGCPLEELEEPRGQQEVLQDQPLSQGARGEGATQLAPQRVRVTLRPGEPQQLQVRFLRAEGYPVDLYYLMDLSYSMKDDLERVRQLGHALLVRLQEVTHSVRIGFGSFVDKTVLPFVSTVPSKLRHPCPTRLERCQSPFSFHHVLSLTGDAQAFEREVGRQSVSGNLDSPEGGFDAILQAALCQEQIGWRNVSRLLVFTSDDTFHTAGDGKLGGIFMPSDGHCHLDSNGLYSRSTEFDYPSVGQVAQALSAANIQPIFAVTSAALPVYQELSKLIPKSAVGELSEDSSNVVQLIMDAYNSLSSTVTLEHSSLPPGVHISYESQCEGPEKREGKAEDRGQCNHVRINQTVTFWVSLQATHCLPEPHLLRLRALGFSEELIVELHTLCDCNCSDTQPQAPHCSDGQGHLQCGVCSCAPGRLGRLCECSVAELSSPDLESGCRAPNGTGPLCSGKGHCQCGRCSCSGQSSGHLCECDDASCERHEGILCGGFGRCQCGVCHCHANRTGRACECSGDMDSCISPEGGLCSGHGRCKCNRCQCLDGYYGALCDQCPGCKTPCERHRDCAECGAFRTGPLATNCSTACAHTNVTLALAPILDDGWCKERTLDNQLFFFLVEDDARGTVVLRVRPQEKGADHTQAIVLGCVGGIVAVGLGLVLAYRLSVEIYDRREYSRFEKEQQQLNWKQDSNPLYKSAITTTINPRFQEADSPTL
Protocol: RPMI 8866 Cell Adhesion to Mouse MAdCAM-1 (α4β7 Binding Assay)
Recombinant mouse MAdCAM-1 was coated on a 96-well plate overnight. Unbound MAdCAM-1 was washed away and plates were blocked with 0,5% BSA. Cells were labelled with BCECF-AM and added to ligand-coated wells. Test compounds were added to the wells followed by RPMI 8866 and the adhesion assay was performed for 45 min at room temperature. Following incubation, the wells were emptied and washed. Inhibition of binding was measured by the quantity of fluorescence bound to the plate for each of the various concentrations of test compound, as well as for controls containing no test compound, with a Cytofluor 2300 fluorescence measurement system.

[1] = read-out: IC50 values in the α4β7 assays
[2] = read-out: IC50 values in the α4β7

T1 sequence (P05556 21-798, one chain of several): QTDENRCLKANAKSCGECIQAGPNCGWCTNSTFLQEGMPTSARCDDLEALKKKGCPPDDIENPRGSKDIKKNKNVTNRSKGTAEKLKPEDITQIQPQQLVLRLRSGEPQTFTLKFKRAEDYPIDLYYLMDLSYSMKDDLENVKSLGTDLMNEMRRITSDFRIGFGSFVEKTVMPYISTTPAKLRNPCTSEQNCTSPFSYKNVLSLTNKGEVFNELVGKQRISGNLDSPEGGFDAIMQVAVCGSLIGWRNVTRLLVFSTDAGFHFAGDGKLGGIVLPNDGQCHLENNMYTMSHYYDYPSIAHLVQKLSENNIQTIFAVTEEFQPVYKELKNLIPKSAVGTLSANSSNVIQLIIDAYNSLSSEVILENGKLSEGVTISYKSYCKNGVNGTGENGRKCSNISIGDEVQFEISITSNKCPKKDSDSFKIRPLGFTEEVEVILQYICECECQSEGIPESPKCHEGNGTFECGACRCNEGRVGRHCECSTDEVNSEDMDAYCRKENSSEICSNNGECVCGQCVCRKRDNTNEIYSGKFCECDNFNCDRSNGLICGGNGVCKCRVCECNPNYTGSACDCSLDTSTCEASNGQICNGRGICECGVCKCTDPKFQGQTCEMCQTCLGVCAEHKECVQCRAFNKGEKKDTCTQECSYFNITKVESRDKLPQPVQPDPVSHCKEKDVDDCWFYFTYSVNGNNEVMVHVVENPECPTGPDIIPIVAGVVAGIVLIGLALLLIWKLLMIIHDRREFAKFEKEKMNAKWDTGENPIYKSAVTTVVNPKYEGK

SMILES | IC50 (α4β1 integrin) [nM] | IC50 (α4β7 integrin; [1]) [nM] | IC50 (α4β7 integrin; [2]) [nM]
CN(C(=O)N[C@@H](Cc1ccc(NC(=O)c2c(Cl)cccc2Cl)cc1)C(=O)O)c1ccccc1S(=O)(=O)c1ccccc1 [Example 23, (S)-2-[3-(2-Benzenesulfonylphenyl)-3-methylureido]-3-[4-(2,6-dichlorobenzoylamino)phenyl]propionic acid] | < 100 | 1000 to 10000 | –
O=C(Nc1ccccc1S(=O)(=O)N1CCCCC1)N[C@@H](Cc1ccc(NC(=O)c2c(Cl)cccc2Cl)cc1)C(=O)O [Example 38, (S)-3-[4-(2,6-Dichlorobenzoylamino)phenyl]-2-{3-[2-(piperdine-1-sulfonyl)phenyl]ureido}propionic acid] | < 100 | 1000 to 10000 | –
CN(C1CCCCC1)S(=O)(=O)c1ccccc1NC(=O)N[C@@H](Cc1ccc(NC(=O)c2c(Cl)cccc2Cl)cc1)C(=O)O [Example 40] | < 100 | 1000 to 10000 | –
CN(C(=O)N[C@@H](Cc1ccc(NC(=O)c2c(Cl)cccc2Cl)cc1)C(=O)O)c1ccccc1S(=O)(=O)N1CCCCC1 [Example 76, (S)-3-[4-(2,6-Dichlorobenzoylamino)phenyl]-2-{3-methyl-3-[2-(piperidine-1-sulfonyl)-phenyl]ureido}propionic acid] | < 100 | 1000 to 10000 | –
CCCN(C(=O)N[C@@H](Cc1ccc(NC(=O)c2c(Cl)cncc2Cl)cc1)C(=O)O)c1ccccc1C(=O)N(C)C1CCCCC1 [Example 82] | < 100 | – | < 100
CN(C(=O)c1ccccc1N(CC1CC1)C(=O)N[C@@H](Cc1ccc(NC(=O)c2c(Cl)cncc2Cl)cc1)C(=O)O)C1CCCCC1 [Example 83] | < 100 | – | < 100
CN1CCN(S(=O)(=O)c2ccccc2NC(=O)N[C@@H](Cc2ccc(NC(=O)c3c(Cl)cncc3Cl)cc2)C(=O)O)CC1 [Example 90, (S)-3-(4-{[1-(3,5-Dichloropyridin-4-yl)methanoyl]amino}phenyl)-2-{3-[2-(4-methylpiperazine-1-sulfonyl)phenyl]ureido}propionic acid] | < 100 | – | < 100
CN1CCN(C(=O)Oc2ccc(C[C@H](NC(=O)Nc3ccccc3S(=O)(=O)c3ccccc3)C(=O)O)cc2)CC1 [Example 114, 4-Methylpiperazine-1-carboxylic acid 4-{(S)-2-[3-(2-benzenesulfonylphenyl)ureido]-2-carboxyethyl}phenyl ester] | – | 1000 to 10000 | –
O=C(Nc1ccccc1S(=O)(=O)c1ccccc1)N[C@@H](Cc1ccc(Nc2nccc3cnccc23)cc1)C(=O)O [Example 122, (S)-2-[3-(2-Benzenesulfonylphenyl)ureido]-3-[4-([2,6]naphthyridin-1-ylamino)phenyl]propionic acid] | < 100 | – | –
O=C(Nc1ccccc1S(=O)(=O)N1CCCCC1)N[C@@H](Cc1ccc(Nc2nccc3cnccc23)cc1)C(=O)O [Example 124, (S)-3-[4-([2,6]Naphthyridin-1-ylamino)phenyl]-2-{3-[2-(piperidine-1-sulfonyl)phenyl]ureido}propionic acid] | < 100 | – | –
O=C(Nc1ccccc1S(=O)(=O)c1ccccc1)N[C@@H](Cc1ccc(Nc2nccc3ccncc23)cc1)C(=O)O [Example 128, (S)-2-[3-(2-Benzenesulfonylphenyl)ureido]-3-[4-([2,7]naphthyridin-1-ylamino)phenyl]propionic acid] | < 100 | – | –
O=C(Nc1ccccc1S(=O)(=O)N1CCCCC1)N[C@@H](Cc1ccc(Nc2nccc3ccncc23)cc1)C(=O)O [Example 130, (S)-3-[4-([2,7]Naphthyridin-1ylamino)-phenyl]-2-{3-[2-(piperidine-1-sulfonyl)phenyl]ureido}propionic acid] | < 100 | – | –
O=C(Nc1ccccc1S(=O)(=O)c1ccccc1)N[C@@H](Cc1ccc(Oc2nccc3cnccc23)cc1)C(=O)O [Example 134, (S)-2-[3-(2-Benzenesulfonylphenyl)ureido]-3-[4-([2,6]naphthyridin-1-yloxy)phenyl]propionic acid] | < 100 | – | –
O=C(Nc1ccccc1S(=O)(=O)N1CCCCC1)N[C@@H](Cc1ccc(Oc2nccc3cnccc23)cc1)C(=O)O [Example 136, (S)-3-[4-([2,6]Naphthyridin-1-yloxy)phenyl]-2-{3-[2-(piperidine-1-sulfonyl)phenyl]ureido}propionic acid] | < 100 | – | –
O=C(Nc1ccccc1S(=O)(=O)N1CCCCC1)N[C@@H](Cc1ccc(Oc2nccc3ccncc23)cc1)C(=O)O [Example 140, (S)-3-[4-([2,7]Naphthyridin-1-yloxy)phenyl]-2-{3-[2-(piperidine-1-sulfonyl)phenyl]ureido}propionic acid] | < 100 | – | –
CN(C(=S)N[C@@H](Cc1ccc(NC(=O)c2c(Cl)cncc2Cl)cc1)C(=O)O)c1ccccc1Cc1ccccc1 [Example 144, (S)-2-[3-(2-Benzylphenyl)-3-methylthioureido]-3-(4-{[1-(3,5-dichloropyridin-4-yl)methanoyl]amino}phenyl)propionic acid] | < 100 | – | –
CN(C(=S)N[C@@H](Cc1ccc(NC(=O)c2c(Cl)cncc2Cl)cc1)C(=O)O)c1ccccc1C(=O)N(C)C1CCCCC1 [Example 146] | < 100 | – | –
O=C(Nc1ccc(C[C@H](NC(=S)Nc2ccccc2S(=O)(=O)N2CCCCC2)C(=O)O)cc1)c1c(Cl)cncc1Cl [Example 147] | < 100 | – | –
